Laboratory results: publication PMC10108347, “Heterobifunctional Ligase Recruiters Enable pan-Degradation of Inhibitor of Apoptosis Proteins” (Journal of Medicinal Chemistry, 2023)
Values joined by “and” are separate entries in the source; they are usually repeats but may differ in a detail not shown here. Equal values may be shown once. Read-outs that look alike come from different tables or passages of the source.

Columns and labels:
SUDHL6 = test: CellTiter-Glo cell viability assay, SUDHL6; type: cell-based; details: Homo sapiens, SU-DHL-6; DLBCL cell line, 96 h, TNFα-challenged; read-out: IC50 cell viability SUDHL6
MOLM13 = test: CellTiter-Glo cell viability assay, MOLM13; type: cell-based; details: Homo sapiens, MOLM-13; AML cell line, 96 h, TNFα-challenged; read-out: IC50 cell viability MOLM13
RPMI-8826 = test: CellTiter-Glo cell viability assay, RPMI-8826; type: cell-based; details: MM cell line, 96 h, TNFα-challenged; read-out: IC50 cell viability RPMI-8826
DB = test: CellTiter-Glo cell viability assay, DB; type: cell-based; details: Homo sapiens
HEL = test: CellTiter-Glo cell viability assay, HEL; type: cell-based; details: Homo sapiens, HEL; AML cell line, 96 h, TNFα-challenged; read-out: IC50 cell viability HEL
[1] = test system: IAPs (cIAP1, cIAP2, XIAP); test: Immunoblotting of IAPs in MM.1S cells, overall degradation profile, time course and washout; type: cell-based
Protocol: Next, we examined the persistence of IAP degradation in MM.1S cells after a single exposure to 1 μM of 9 and subsequent removal of the compound. […] The reliance on CRL2^VHL was assessed with a neddylation inhibitor MLN4924, which blocks the activity of CRLs (Figure S13A).

MM.1S cells proteome = test: diaPASEF quantitative proteomics in MM.1S cells: proteome-wide degradation selectivity (other proteins); type: cell-based, human
Protocol: To analyze the proteome-wide degradation selectivity of hetero-PROTACs 9, 25, and 27, a diaPASEF-based mass spectrometry approach was employed.[54] MM.1S cells were treated with 100 nM PROTACs for 3 h. […] Accordingly, global proteomic plots show the mathematically imputed levels of IAP proteins in treatment groups if the corresponding IAP was detected in the control treatment (see also Experimental Section).
MM1s cells were treated with DMSO or 0.1 μM of compound for 3 h. The cells were harvested by centrifugation and washed with phosphate-buffered saline before snap-freezing in liquid nitrogen. The cells were lysed by addition of lysis buffer (8 M urea, 50 mM NaCl, 50 mM 4-(2-hydroxyethyl)-1-piperazine-ethanesulfonic acid (EPPS) pH 8.5, protease, and phosphatase inhibitors) and homogenization by bead beating (BioSpec) for three repeats of 30 s at 2400. Bradford assay was used to determine the final protein concentration in the clarified cell lysate. 50 μg of protein for each sample was reduced, alkylated, and precipitated using methanol/chloroform as previously described,[64] and the resulting washed precipitated protein was allowed to air dry. The precipitated protein was resuspended in 4 M urea, 50 mM HEPES pH 7.4, followed by dilution to 1 M urea with the addition of 200 mM EPPS, pH 8. […] The LysC digestion was diluted to 0.5 M urea with 200 mM EPPS pH 8, followed by digestion with trypsin (1:50; enzyme/protein) for 6 h at 37 °C. Sample digests were acidified with formic acid to a pH of 2–3 prior to desalting using C18 solid-phase extraction plates (SOLA, Thermo Fisher Scientific). Desalted peptides were dried in a vacuum centrifuge and reconstituted in 0.1% formic acid for LC–MS analysis.
Data were collected using a TimsTOF Pro2 (Bruker Daltonics, Bremen, Germany) coupled to a nanoElute LC pump (Bruker Daltonics, Bremen, Germany) via a CaptiveSpray nanoelectrospray source. […] Peptides were separated using a 50 min gradient of 2–30% buffer B (acetonitrile in 0.1% formic acid) with a flow rate of 250 nL/min and column temperature maintained at 50 °C.
Data-Dependent Acquisition (DDA) was performed in the Parallel Accumulation-Serial Fragmentation (PASEF) mode to determine effective ion mobility windows for downstream diaPASEF data collection.[54] The diaPASEF parameters included 100% duty cycle using accumulation and ramp times of 50 ms each, 1 TIMS-MS scan, and 10 PASEF ramps per acquisition cycle. The TIMS-MS survey scan was acquired between 100–1700 m/z and 1/K0 of 0.7–1.3 V × s/cm^2. Precursors with 1–5 charges were selected, and those that reached an intensity threshold of 20,000 arbitrary units were actively excluded for 0.4 min. The quadrupole isolation width was set to 2 m/z for m/z < 700 and 3 m/z for m/z > 800, with the m/z between 700 and 800 m/z being interpolated linearly. […] To perform diaPASEF, the precursor distribution in the DDA m/z-ion mobility plane was used to design an acquisition scheme for DIA data collection, which included two windows in each 50 ms diaPASEF scan. Data was acquired using 16 of these 25 Da precursor double window scans (creating 32 windows), which covered the diagonal scan line for doubly and triply charged precursors, with singly charged precursors able to be excluded by their position in the m/z-ion mobility plane. These precursor isolation windows were defined between 400–1200 m/z and 1/K0 of 0.7–1.3 V × s/cm^2.
The diaPASEF raw file processing and controlling peptide and protein level false discovery rates, assembling proteins from peptides, and protein quantification from peptides were performed using library-free analysis in DIA-NN 1.8.[65] The library-free mode performs an in silico digestion of a given protein sequence database alongside deep learning-based predictions to extract the DIA precursor data into a collection of MS^2 spectra.

K562 = test: CellTiter-Glo cell viability assay, K562; type: cell-based; details: Homo sapiens, K562; AML cell line, 96 h, TNFα-challenged; read-out: IC50 cell viability K562
[2] = MM.1S cells, 0.1 μM, 3 h, log2 fold change compound vs CTRLs (limma)

## CN[C@@H](C)C(=O)N[C@H](C(=O)N1C[C@@H](Oc2cccc(OCCCCC(=O)N[C@H](C(=O)N3C[C@H](O)C[C@H]3C(=O)N[C@@H](C)c3ccc(-c4scnc4C)cc3)C(C)(C)C)c2)C[C@H]1C(=O)N[C@@H]1CCCc2ccccc21)C1CCCCC1 [PROTAC 9, (2S,4S)-1-((S)-2-Cyclohexyl-2-((S)-2-(methylamino)propanamido)acetyl)-4-(3-((5-(((S)-1-((2S,4R)-4-hydroxy-2-(((S)-1-(4-(4-methylthiazol-5-yl)phenyl)ethyl)carbamoyl)pyrrolidin-1-yl)-3,3-dimethyl-1-oxobutan-2-yl)amino)-5-oxopentyl)oxy)phenoxy)-N-((R)-1,2,3,4-tetrahydronaphthalen-1-yl)pyrrolidine-2-carboxamide]
SUDHL6
  IC50: 1.6 nM
MOLM13
  IC50: 2.1 nM
RPMI-8826
  IC50: 2540 nM
DB; DB, DLBCL cell line, 96 h, TNFα-challenged, read-out: IC50 cell viability DB
  IC50: 460 nM
DB; SI csv, head prints only the cell line, no quantity or unit, values parallel Table 1/S8, read-out: DB
  IC50: 510 nM
HEL
  IC50: 1170 nM
[1]; 0.1 μM, time course
  time to complete degradation of cIAP1, cIAP2 and XIAP: ≤ 3 h
[1]; 16 h, western blot, concentration (10 nM to 1 μM)
  IAP degradation profile (in words): induces cIAP1, cIAP2, XIAP, and VHL30 degradation in a dose-dependent manner
[1]; single exposure to 1 μM for 16 h, then compound removal
  persistence of IAP degradation after washout (in words): nearly full and stable pan-degradation of IAPs up to 72 h
MM.1S cells proteome; CLPX_HUMAN (O76031), ATP-dependent Clp protease ATP-binding subunit clpX-like, mitochondrial, precursor charge 2, per-replicate values (rep1, rep2), listed as Gue3582
  Precursor intensity (DIA-NN), CLPX precursor AAAAADLANR2: 27158.9 and 21797.6
MM.1S cells proteome; [2]
  logFC EIF1AX: 0.2289
  logFC SIGMAR1: 0.1571
  logFC TAF15: 0.09552
  logFC TOP1: 0.1861
MM.1S cells proteome; RL4_HUMAN (P36578), 60S ribosomal protein L4, precursor charge 1, per-replicate values (rep1, rep2), listed as Gue3582
  Precursor intensity (DIA-NN), RPL4 precursor AAAAAAALQAK1: 83.0044 and 593.705
MM.1S cells proteome; RL4_HUMAN (P36578), 60S ribosomal protein L4, precursor charge 2, per-replicate values (rep1, rep2), listed as Gue3582
  Precursor intensity (DIA-NN), RPL4 precursor AAAAAAALQAK2: 450548 and 462008
MM.1S cells proteome; SAMD1_HUMAN (Q6SPF0), Atherin, precursor charge 2, per-replicate values (rep1, rep2), listed as Gue3582
  Precursor intensity (DIA-NN), SAMD1 precursor AAAAAATAPPSPGPAQPGPR2: 15172 and 13054.7
MM.1S cells proteome; ZFP91_HUMAN (Q96JP5), E3 ubiquitin-protein ligase ZFP91, precursor charge 2, per-replicate values (rep1, rep2), listed as Gue3582
  Precursor intensity (DIA-NN), ZFP91 precursor AAAAAAAAAVSR2: 70631.3 and 75175.8
K562
  IC50: 420 nM
